Patent US6737383B1, “Herbicidal oxadiazolidines” (priority 1999, dated 2004)

Legend:
blackgrass = assay: Test B pre/postemergence blackgrass; type: in vivo, Alopecurus myosuroides; settings: Preemergence
How it was run: (§1)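 Test chemicals in a non-phytotoxic solvent mixture with surfactant were sprayed preemergence onto planted seeds and postemergence onto plants 2 to 18 cm tall (1- to 4-leaf stage). After twelve to sixteen days in a greenhouse, injury was visually rated against untreated controls from 0 (no effect) to 10 (complete control).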

bamyardgrass = assay: Test B flood test barnyardgrass; type: in vivo, Echinochloa crus-galli
How it was run: (§2)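 Plants were grown to the 2-leaf stage before treatment with test chemical, then held in a greenhouse for twelve to sixteen days. Injury was visually rated against untreated controls on a 0–10 scale, where 0 is no effect and 10 is complete control.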

smallflower flatsedge = assay: Test B flood test smallflower flatsedge; type: in vivo, Cyperus difformis
How it was run: as §2

rice = assay: Test B flood test rice; type: in vivo, Oryza sativa
How it was run: as §2

cocklebur = assay: Test B pre/postemergence cocklebur; type: in vivo, Xanthium strumarium; settings: Preemergence
How it was run: as §1

morningglory = assay: Test B pre/postemergence morningglory; type: in vivo, Ipomoea hederacea; settings: Preemergence
How it was run: as §1

duck salad = assay: Test B flood test duck salad; type: in vivo, Heteranthera limosa
How it was run: as §2

sugar beet = assay: Test B pre/postemergence sugar beet; type: in vivo, Beta vulgaris; settings: Preemergence
How it was run: as §1

soybean = assay: Test B pre/postemergence soybean; type: in vivo, Glycine max; settings: Preemergence
How it was run: as §1

wild oat = assay: Test B pre/postemergence wild oat; type: in vivo, Avena fatua; settings: Preemergence
How it was run: as §1

wheat = assay: Test B pre/postemergence wheat; type: in vivo, Triticum aestivum; settings: Preemergence
How it was run: as §1

corn = assay: Test B pre/postemergence corn; type: in vivo, Zea mays; settings: Preemergence
How it was run: as §1

pigweed = assay: Test B pre/postemergence pigweed; type: in vivo, Amaranthus retroflexus; settings: Preemergence
How it was run: as §1

surinam grass = assay: Test B pre/postemergence surinam grass; type: in vivo, Brachiaria decumbens; settings: Preemergence
How it was run: as §1

velvetleaf = assay: Test B pre/postemergence velvetleaf; type: in vivo, Abutilon theophrasti; settings: Preemergence
How it was run: as §1

purple nutsedge = assay: Test B pre/postemergence purple nutsedge; type: in vivo, Cyperus rotundus; settings: Preemergence
How it was run: as §1

bedstraw = assay: Test B pre/postemergence bedstraw; type: in vivo, Galium aparine; settings: Preemergence
How it was run: as §1

giant foxtail = assay: Test B pre/postemergence giant foxtail; type: in vivo, Setaria faberii; settings: Preemergence
How it was run: as §1

rape = assay: Test B pre/postemergence rape; type: in vivo, Brassica napus; settings: Preemergence
How it was run: as §1

crabgrass = assay: Test B pre/postemergence crabgrass; type: in vivo, Digitaria sanguinalis; settings: Preemergence
How it was run: as §1

[1] = Rate 62 g/ha, scale of 0 to 10 where 0 is no effect and 10 is complete control
[2] = Rate 125 g/ha, scale of 0 to 10 where 0 is no effect and 10 is complete control
[3] = Rate 250 g/ha, scale 0 (no effect) to 10 (complete control)
[4] = Rate 500 g/ha, scale 0 to 10 (0 no effect, 10 complete control)
[5] = Pre-emergence, Rate 62 g/ha, scale 0 to 10, 0 is no effect, 10 is complete control
[6] = Rate 125 g/ha, Pre-emergence section (flood test species), scale 0 to 10, 0 no effect, 10 complete control
[7] = Rate 250 g/ha, Pre-emergence (flood test species), scale 0 to 10, 0 is no effect, 10 is complete control
[8] = Rate 500 g/ha, Pre-emergence section of Table B, 0 to 10 scale (0 no effect, 10 complete control)

Compound: CC(C)N(C(=O)n1oc(=O)n(C(C)C2CC2)c1=O)c1ccc(F)cc1F (centres unmarked) [Compound 720]
- Blackgrass plant response rating (blackgrass; [1]): 9
- Plant response rating, Blackgrass (blackgrass; [2]): 9
- Blackgrass plant response rating (blackgrass; [3]): 10
- Blackgrass plant response rating (blackgrass; [4]): 10
- Barnyardgrass plant response rating (bamyardgrass; [5]): 0
- Barnyardgrass plant response rating (bamyardgrass; [6]): 0
- Barnyardgrass plant response rating (bamyardgrass; [7]): 0
- Barnyardgrass plant response rating (bamyardgrass; [8]): 0
- S. Flatsedge plant response rating (smallflower flatsedge; [5]): 0
- S. Flatsedge plant response rating (smallflower flatsedge; [6]): 0
- S. Flatsedge plant response rating (smallflower flatsedge; [7]): 0
- S. Flatsedge plant response rating (smallflower flatsedge; [8]): 0
- Rice plant response rating (rice; [5]): 0
- Rice plant response rating (rice; [6]): 0
- Rice plant response rating (rice; [7]): 0
- Rice plant response rating (rice; [8]): 0
- Cocklebur plant response rating (cocklebur; [1]): 0
- Plant response rating, Cocklebur (cocklebur; [2]): 0
- Cocklebur plant response rating (cocklebur; [3]): 0
- Morningglory plant response rating (morningglory; [1]): 0
- Plant response rating, Morningglory (morningglory; [2]): 0
- Morningglory plant response rating (morningglory; [4]): 2
- Ducksalad plant response rating (duck salad; [5]): 0
- Ducksalad plant response rating (duck salad; [6]): 0
- Ducksalad plant response rating (duck salad; [7]): 0
- Ducksalad plant response rating (duck salad; [8]): 0
- Sugarbeets plant response rating (sugar beet; [1]): 4
- Plant response rating, Sugarbeets (sugar beet; [2]): 6
- Sugarbeets plant response rating (sugar beet; [3]): 8
- Sugarbeets plant response rating (sugar beet; [4]): 8
- Soybean plant response rating (soybean; [1]): 0
- Plant response rating, Soybean (soybean; [2]): 0
- Soybean plant response rating (soybean; [3]): 0
- Soybean plant response rating (soybean; [4]): 0
- Wild oats plant response rating (wild oat; [1]): 7
- Plant response rating, Wild oats (wild oat; [2]): 8
- Wild oats plant response rating (wild oat; [3]): 9
- Wild oats plant response rating (wild oat; [4]): 9
- Wheat plant response rating (wheat; [1]): 0
- Plant response rating, Wheat (wheat; [2]): 0
- Wheat plant response rating (wheat; [3]): 5
- Wheat plant response rating (wheat; [4]): 5
- Corn plant response rating (corn; [1]): 0
- Plant response rating, Corn (corn; [2]): 2
- Corn plant response rating (corn; [3]): 4
- Redroot pigweed plant response rating (pigweed; [1]): 8
- Plant response rating, Redroot pigweed (pigweed; [2]): 9
- Redroot pigweed plant response rating (pigweed; [3]): 10
- Redroot pigweed plant response rating (pigweed; [4]): 10
- B. signalgrass plant response rating (surinam grass; [1]): 8
- Plant response rating, B. signalgrass (surinam grass; [2]): 9
- B. signalgrass plant response rating (surinam grass; [3]): 10
- B. signalgrass plant response rating (surinam grass; [4]): 10
- Velvetleaf plant response rating (velvetleaf; [1]): 1
- Plant response rating, Velvetleaf (velvetleaf; [2]): 2
- Velvetleaf plant response rating (velvetleaf; [3]): 3
- Velvetleaf plant response rating (velvetleaf; [4]): 3
- Plant response rating, Nutsedge (purple nutsedge; [2]): 0
- Nutsedge plant response rating (purple nutsedge; [4]): 0
- Plant response rating, Bedstraw (bedstraw; [2]): 10
- Bedstraw plant response rating (bedstraw; [3]): 10
- Bedstraw plant response rating (bedstraw; [4]): 10
- Giant foxtail plant response rating (giant foxtail; [1]): 9
- Plant response rating, Giant foxtail (giant foxtail; [2]): 10
- Giant foxtail plant response rating (giant foxtail; [3]): 10
- Giant foxtail plant response rating (giant foxtail; [4]): 10
- Rape plant response rating (rape; [1]): 6
- Plant response rating, Rape (rape; [2]): 7
- Rape plant response rating (rape; [3]): 9
- Rape plant response rating (rape; [4]): 9
- Crabgrass plant response rating (crabgrass; [1]): 9
- Plant response rating, Crabgrass (crabgrass; [2]): 9
- Crabgrass plant response rating (crabgrass; [3]): 10
- Crabgrass plant response rating (crabgrass; [4]): 10
